Assay results reported in patent US20240327459A1, “PEPTIDE FRAGMENTS FOR TREATMENT OF DIABETES” (Follicum AB, priority 2018, published 2024).
“Also recorded” adds a separate entry of the source.

Assays:
INS-1E cells [1] = assay: Insulin secreting capacity after 72 hours of glucotoxic conditions (Examples 19, 22); assay type: cell-based, rat; conditions: Example 19, 20 mM glucose 72 hours with peptide, then 16.7 mM glucose 1 h
Method: To investigate the β-cell protective effect of FOL-056, we subjected INS-1E to cytotoxic levels of glucose for 72 hours. Rat INS-1E cells were seeded in 96-well plates (2×10^3 cells/well) in cRPMI medium. Following 72 hours of incubation, the medium was changed to RPMI containing 20 mM glucose with or without FOL-056 or FOL-014 and were cultured at 37° C. during an additional 72 hours to induce glucotoxicity. RPMI containing 5 mM glucose was included as a low glucose control. Following 72 hours, the medium was removed and the INS-1E cells were equilibrated in Krebs-Ringer bicarbonate buffer (KREB), pH 7.4, (supplemented with 10 mM HEPES, 0.1% bovine serum albumin and 2.8 mM glucose) for 2 hours. After equilibration, the buffer was changed and the INS-1E cells were incubated in KREBs containing 16.7 mM glucose […] during 1 h. Immediately after incubation, an aliquot of the buffer was removed and frozen for subsequent assay of insulin content.
To investigate the β-cell protective effect of several novel peptide fragments derived from FOL-005 and FOL-014, INS-1 cells were subjected to cytotoxic levels of glucose for 72 hours. […] In order to correct for the variance between experiments, all values were normalized to, and expressed as percentage of the average value of the high glucose control in the individual experiments. […]

human islets = assay: Insulin secretion from human pancreatic islets; assay type: cell-based; conditions: 1 nM peptide, 16.7 mM glucose, 60 minutes, two donors
Method: To investigate the functionality of FOL-056 in human primary tissue, the pancreatic islets from two non-diabetic human donors were used. Islets were picked, aliquoted in groups of 12 and incubated at 37° C. in 1 ml Krebs-Ringer bicarbonate buffer, pH 7.4, supplemented with 10 mM HEPES, 0.1% bovine serum albumin and 1.0 mM glucose. Following pre-incubation, the buffer was exchanged with fresh Krebs-Ringer buffer as described above and supplemented with specific glucose concentrations (1 mM or 16.7 mM), FOL-056 peptides (1 nM) or Liraglutide (100 nM). Immediately after 60 minutes incubation at 37° C., an aliquot of the buffer was removed and frozen for subsequent insulin ELISA assay. (FIG. 19)

db/db mice = assay: HbA1c in db/db mice after 4 weeks of dosing; assay type: in vivo, mouse; conditions: 100 nmol/kg subcutaneously, 5 days per week for 4 weeks, vs PBS control
Method: To investigate the long-term effect of FOL-014 and FOL-056 in diabetic mice, db/db mice were dosed with 100 nmol/kg peptide subcutaneously, 5 days per week for 4 weeks. Control mice were injected with PBS. After 4 weeks of treatment the mice were terminated and 25 μl whole blood was immediately frozen for subsequent HbA1c analysis. (FIG. 21).

[2] = tested on: human pancreatic β-cell line 1.2B4; assay: Insulin secretion from 1.2B4 human β-cells; assay type: cell-based; conditions: 100 nM peptide, 16.7 mM glucose, 60 minutes
Method: In order to test the effect of FOL-014 and FOL-056 in human cells, the human pancreatic β-cell line 1.2B4 were cultured at 37° C. and 5% CO2 in RPMI 1640 supplemented with 10% fetal bovine serum, 50 IU/mL penicillin, 50 mg/L streptomycin, 1 mM L-glutamine. 1.2B4 cells were seeded in 24-well plates in RPMI medium and following overnight incubation, the medium was removed before pre-incubation for 40 min at 37° C. in Krebs-Ringer bicarbonate buffer, pH 7.4, supplemented with 10 mM HEPES, 0.1% bovine serum albumin and 1.0 mM glucose. Following pre-incubation, the buffer was exchanged with fresh Krebs-Ringer buffer as described above and supplemented with specific glucose concentrations, 1 mM or 16.7 mM. FOL-014, FOL-056 or Liraglutide was added at a concentration of 100 nM in the presence of 16.7 mM glucose. Immediately after 60 minutes incubation at 37° C., an aliquot of the buffer was removed and frozen for subsequent insulin ELISA assay. (FIG. 18)

[3] = tested on: diet induced obese c57BI6 mice; assay: Acute insulin response in diet induced obese mice after long term dosing; assay type: in vivo, mouse; conditions: 300 nmol/kg subcutaneously 5 days per week, 12 weeks high fat diet; 1 minute after 1 g/kg iv glucose; P=0.01
Method: Materials and methods: To investigate the effects of FOL-056 in vivo in a high fat diet model, wild type c57BI6 mice were subcutaneously dosed 5 days per week with 300 nmol/kg FOL-056, while being fed high fat diet for 12 weeks. Control animals were dosed with PBS.
In diet induced obese c57BI6 mice, untreated or dosed with FOL-056, the fasting plasma insulin levels were measured before as well as 1 minute after an intravenous glucose injection of 1 g/kg. The insulin value measured before the glucose injection was subtracted from the value measured after the injection for each individual mouse in order to obtain the acute insulin response (AIR). (FIG. 20)

INS-1E cells [4] = assay: Insulin secretion from INS-1E cells (Example 18); assay type: cell-based, rat; conditions: 100 nM peptide, high (16.7 mM) glucose buffer, 60 min, vs un-supplemented buffer
Method: To investigate the stimulatory effect of FOL-056 on insulin secretion we used INS-1E cells. The cells were seeded overnight and washed with PBS before pre-incubation for 60 min at 37° C. in Krebs-Ringer bicarbonate buffer (KRB), pH 7.4, supplemented with 10 mM HEPES, 0.1% bovine serum albumin. Following pre-incubation, the buffer was discarded and the INS-1E cells were incubated in fresh KRB buffer supplemented with 10 mM HEPES, 0.1% bovine serum albumin with or without peptide FOL-056. For comparative purposes cells treated with FOL-014 was included. Following 60 min incubation at 37.C, the buffer was removed and frozen for subsequent insulin assay.

## AEIDSIELSYGIK (MISC_FEATURE - peptide) [FOL-056]
INS-1E cells [1]
  insulin secreting ability after glucotoxic conditions: preserves β-cell function as shown by retained glucose induced insulin secretion; also recorded: abolished the glucotoxic effects and retained insulin release at the same level as from β-cells in the low (5 mM) glucose treatment group
Human islets
  insulin secretion: potentiates the capacity of primary human pancreatic islets to secrete insulin as a response to high glucose levels; also recorded: significantly increased the insulin secretion as compared with cells treated with an un-supplemented high glucose buffer
db/db mice
  HbA1c: reduce the HbA1c in db/db mice as compared with the untreated control group; also recorded: significantly lower HbA1c
[2]
  insulin secretion: increase the insulin secretion capacity in 1.2B4 human β-cells; also recorded: significantly increased the insulin secretion as compared with cells treated with an un-supplemented high glucose buffer
[3]
  acute insulin response (AIR): significantly improved; also recorded: significantly higher
INS-1E cells [4]
  insulin secretion: secrete significantly more insulin compared to unstimulated control cells; also recorded: significantly increased the insulin secretion as compared with cells treated with an un-supplemented high glucose buffer
